Patent US20210386814A1, “METHODS AND COMPOUND FOR THE TREATMENT OF MALARIA” (priority 2020, published 2021)
In brackets after ≈: the same amount, converted by molar mass. Where two headings read alike, the source gives them in different places.

Columns and labels:
P. falciparum culture = conditions: cited from earlier work
gamma interferon = assay: in vitro gamma interferon production; type: cell-based
From the text: Moreover, the increase in gamma interferon may have a far greater impact on reversing the course of HIV-1 infection. […] Therefore, further evaluation of 90I in malaria cell-lines may provide the opportunity to find new clinical uses for an established HIV antiprotease patented drug. Also, the purpose of this approach is to lower the costs and shorten the timeframe of product development.

[1] = tested on: RF laboratory strain of HIV-1; assay: antiviral evaluation in CEM-SS cell line against HIV-1 RF; type: cell-based; conditions: CEM-SS cells, HIV-1 RF strain
Description: The purified fraction 90I may yield a fifty percent effective concentration (EC50) of 0.020 ug/ml. At the same time, there was no discernible drug induced toxicity in this study (50% inhibitory concentration ([…]) was greater than the high-test concentration of 100 ug/ml).

[2] = target: P. falciparum lactate dehydrogenase (Plasmodium falciparum, UniProt Q27743); conditions: cited from earlier work
[3] = target: P. falciparum aspartic protease plasmepsin II (Plasmodium falciparum, UniProt P46925); conditions: read-out: 1050, plasmepsin II; cited from earlier work
Sequence of P. falciparum aspartic protease plasmepsin II (P46925 125-453): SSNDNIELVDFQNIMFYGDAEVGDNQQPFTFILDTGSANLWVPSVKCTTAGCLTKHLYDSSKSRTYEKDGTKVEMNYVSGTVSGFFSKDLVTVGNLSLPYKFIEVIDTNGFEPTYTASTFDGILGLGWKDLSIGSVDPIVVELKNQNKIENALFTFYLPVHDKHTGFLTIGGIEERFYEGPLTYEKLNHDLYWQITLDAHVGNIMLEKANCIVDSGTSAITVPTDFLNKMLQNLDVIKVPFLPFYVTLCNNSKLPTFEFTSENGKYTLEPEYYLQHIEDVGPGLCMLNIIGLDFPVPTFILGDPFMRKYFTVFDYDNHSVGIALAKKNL

Sequence of P. falciparum lactate dehydrogenase (Q27743 whole entry): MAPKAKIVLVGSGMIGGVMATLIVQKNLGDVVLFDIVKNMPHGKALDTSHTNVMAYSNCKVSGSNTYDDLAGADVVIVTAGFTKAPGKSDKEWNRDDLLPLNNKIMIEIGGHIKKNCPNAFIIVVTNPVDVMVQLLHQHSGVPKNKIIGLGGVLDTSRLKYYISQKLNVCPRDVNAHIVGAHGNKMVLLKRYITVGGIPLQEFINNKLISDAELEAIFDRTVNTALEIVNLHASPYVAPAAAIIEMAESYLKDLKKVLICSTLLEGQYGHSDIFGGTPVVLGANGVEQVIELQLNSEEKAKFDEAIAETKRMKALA

CC(C)C[C@H](NC(=O)[C@H]1O[C@@H]1C(=O)O)C(=O)NCCCCN=C(N)N (relative stereo) [E64, trans-Epoxysuccinyl-L-leucylamido(4-guanidino)butane]
effects on P. falciparum culture (P. falciparum culture): blocked parasite release

O=C(OCCOCCOC(=O)c1ccccc1)c1ccccc1 [90I, diethylene glycol dibenzoate]
production of gamma interferon (gamma interferon): increased production of gamma interferon
therapeutic index (T1=IC50/EC50) [1]: greater than 5000
EC50 ([1]; Human immunodeficiency virus 1, read-out: fifty percent effective concentration (EC50)): 0.02 µg/mL (≈ 0.0636 µM)

CC(=O)N[C@@H](CC(C)C)C(=O)N[C@@H](CC(C)C)C(=O)N[C@H](C=O)CCCNC(=N)N [Leupeptin, N-acetyl-L-leucyl-L-leucy-L-argininal]
effects on P. falciparum culture (P. falciparum culture; 10 μg/ml): All three of these effects were also seen

CCCC[C@@H](C=O)NC(=O)[C@H](CC(C)C)NC(=O)OCc1ccccc1 [calpeptin]
effects on P. falciparum culture (P. falciparum culture; 1 μM): All three of these effects were also seen

CCN(CC)CCCC(C)Nc1ccnc2cc(Cl)ccc12 (centres unmarked) [chloroquine]
inhibition of lactate dehydrogenase [2]: weak inhibitor

Cc1cccc(C)c1OCC(=O)N[C@@H](Cc1ccccc1)[C@@H](O)C[C@H](Cc1ccccc1)NC(=O)[C@H](C(C)C)N1CCCNC1=O [lopinavir]
IC50 [3]: 2.7 µM
